{"source": "paper PMC6864722", "about": "“Design and Synthesis of Novel Breast Cancer Therapeutic Drug Candidates Based upon the Hydrophobic Feedback Approach of Antiestrogens” (Molecules, 2019)", "key": {"ERα": {"tested_on": "ERα", "design": "method as in doi:10.1351/pac200375091197", "settings": "cited from earlier work"}, "OVX and ORX mice": {"tested_on": "OVX and ORX mice", "design": "method as in doi:10.1351/pac200375091197", "settings": "cited from earlier work"}, "[1]": {"target": "T1, human estrogen receptor α (ERα) (Homo sapiens, UniProt P03372)", "T1 sequence (P03372 1-595)": "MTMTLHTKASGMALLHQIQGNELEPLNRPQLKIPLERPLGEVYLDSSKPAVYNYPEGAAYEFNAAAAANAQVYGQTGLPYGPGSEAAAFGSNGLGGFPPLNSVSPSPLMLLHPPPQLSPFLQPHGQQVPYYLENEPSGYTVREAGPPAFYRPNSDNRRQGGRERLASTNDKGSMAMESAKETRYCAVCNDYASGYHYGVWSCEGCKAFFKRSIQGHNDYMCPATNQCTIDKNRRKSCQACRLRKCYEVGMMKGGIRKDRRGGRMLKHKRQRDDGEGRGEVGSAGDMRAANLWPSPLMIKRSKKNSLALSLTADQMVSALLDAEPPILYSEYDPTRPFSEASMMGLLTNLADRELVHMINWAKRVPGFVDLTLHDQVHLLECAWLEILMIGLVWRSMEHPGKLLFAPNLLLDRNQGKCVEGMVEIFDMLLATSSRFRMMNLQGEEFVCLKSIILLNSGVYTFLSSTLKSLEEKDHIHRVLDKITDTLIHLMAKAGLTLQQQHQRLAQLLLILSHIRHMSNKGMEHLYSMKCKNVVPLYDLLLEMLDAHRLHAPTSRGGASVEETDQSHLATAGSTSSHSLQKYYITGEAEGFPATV", "assay": "Competitive binding assay using [6,7-3H]17β-estradiol and human recombinant ERα (nitrocellulose filter binding)", "settings": "for RBA (relative binding affinity): binding affinity of E2 taken as 100, estimated from sigmoidal dose-response curves", "description": "The ligand binding activity of human estrogen receptor α (ER α) was determined by a nitrocellulose filter binding assay method. […] Radioactivity that remained in the membrane was measured in Atomlight by using a liquid scintillation counter.\nAll binding assays were performed in duplicate (n = 2)."}, "MCF-7 cells": {"tested_on": "MCF-7 cells", "assay": "MCF-7 cell proliferation assay (WST-8), in the presence or absence of 0.1 nM E2", "assay_type": "cell-based, human", "settings": "for EC50: estrogenic activity, absence of E2, four days; for Emax / IC50: MCF7; for Emax: read-out: Emax (maximal efficacy toward cell proliferation); for IC50: proliferation induced by 0.1 nM of E2, read-out: IC50 (inhibition of MCF-7 cell proliferation)", "procedure": "Table 1 summarizes the EC50, IC50, and Emax values estimated from the MCF-7 cell proliferation assays. Emax represents the maximal efficacy of each compound toward cell proliferation and is an index of ER partial agonistic activity. Emax was estimated relative to that of E2, which was taken as 100.\nThe human breast adenocarcinoma cell line MCF-7 was routinely cultivated in DMEM supplemented with 10% FBS and 100 IU/mL penicillin and […] streptomycin at 37 °C in a 5% CO2 humidified incubator. Before an assay, MCF-7 cells were switched to DMEM (low glucose phenol red-free supplemented with 5% FBS, and 100 IU/mL penicillin and […] streptomycin). Cells were trypsinized from the maintenance dish with phenol red-free trypsin-EDTA and seeded in a 96-well plate at a density of 2000 cells per final volume of 100 μL DMEM supplemented with 5% stripped FBS and 100 IU/mL penicillin and […] streptomycin. After 24 h, the medium was removed and 90 μL of fresh medium and 10 μL of drug solution, supplemented with serial dilutions of test compounds or DMSO as dilute control in the presence or absence of 0.1 nM E2, were added to triplicate microcultures. Cells were incubated for four days. At the end of the incubation time, number of cells was counted by using the WST-8, which was added to microcultures 10 μL each, and they were incubated for 2–4 h. The absorbance at 450 nm was measured. This parameter relates to and number of living cells in the culture."}, "ER": {"tested_on": "ER", "design": "method as in PMID 15943468", "settings": "cited from earlier work"}, "[2]": {"settings": "Homo sapiens, relative to E2, taken as 100"}}, "note": "“Also recorded” adds a separate entry of the source.", "data": [{"compound": "1,2-bis(4-hydroxyphenyl)-o-carborane [BE360]", "values": [{"measurement": "Binding affinity toward ERα (in words)", "setting": "ERα", "result": "high binding affinity toward ERα"}, {"measurement": "Estrogenic action in bone and uterus (in words)", "setting": "OVX and ORX mice", "result": "estrogenic action in bone without showing estrogenic action in the uterus"}]}, {"compound": "3,4-Bis (4-hydroxyphenyl)-2,3,6,7-tetrahydrothiepine [5a]", "values": [{"measurement": "RBA (relative binding affinity)", "setting": "[1]", "result": 4.9, "unit": "%"}, {"measurement": "Estrogenic / antiestrogenic activity toward MCF-7 (in words)", "setting": "MCF-7 cells", "result": "acted as an agonist toward MCF-7 cell proliferation; also recorded: showed estrogenic activity"}, {"measurement": "EC50", "setting": "MCF-7 cells", "result": 48, "unit": "nM"}, {"measurement": "Emax (maximal efficacy toward cell proliferation)", "setting": "MCF-7 cells; relative to E2, taken as 100", "result": 99, "unit": "%"}]}, {"compound": "Oc1ccc(C2=C(c3ccc(O)cc3)CSC2)cc1", "note": "[4a, 3,4-Bis-(4-hydroxyphenyl)-2,5-dihydrothiophene]", "values": [{"measurement": "Binding affinity, times lower than that of E2", "setting": "[1]", "result": "about 100 times"}, {"measurement": "Binding to ERα (in words)", "setting": "[1]", "result": "moderately bound to ERα"}, {"measurement": "Estrogenic / antiestrogenic activity toward MCF-7 (in words)", "setting": "MCF-7 cells", "result": "showed estrogenic activity"}, {"measurement": "EC50", "setting": "MCF-7 cells; Homo sapiens, MCF7, 96 h", "result": 390, "unit": "nM"}, {"measurement": "Emax", "setting": "MCF-7 cells; [2]", "result": 119, "unit": "%"}]}, {"compound": "[O-][S+]1CC(c2ccc(O)cc2)=C(c2ccc(O)cc2)C1", "note": "[4b, 3,4-Bis-(4-hydroxyphenyl)-2,5-dihydrothiophene-1-oxide]", "values": [{"measurement": "melting point", "result": "219 to 220", "unit": "°C"}, {"measurement": "Binding to ERα (in words)", "setting": "[1]", "result": "did not bind to the ERα ligand-binding domain (LBD), even at concentrations 1000 times higher than that of E2"}, {"measurement": "RBA (relative binding affinity)", "setting": "[1]", "result": 0.003, "unit": "%"}]}, {"compound": "O=S1(=O)CC(c2ccc(O)cc2)=C(c2ccc(O)cc2)C1", "note": "[4c, 3,4-Bis-(4-hydroxyphenyl)-2,5-dihydrothiophene-1,1-dioxide]", "values": [{"measurement": "melting point", "result": "180.5 to 181", "unit": "°C"}, {"measurement": "Binding to ERα (in words)", "setting": "[1]", "result": "did not bind to the ERα ligand-binding domain (LBD), even at concentrations 1000 times higher than that of E2"}, {"measurement": "RBA (relative binding affinity)", "setting": "[1]", "result": 0.04, "unit": "%"}, {"measurement": "Estrogenic / antiestrogenic activity toward MCF-7 (in words)", "setting": "MCF-7 cells", "result": "showed estrogenic activity"}, {"measurement": "EC50", "setting": "MCF-7 cells; Homo sapiens, MCF7, 96 h", "result": 300, "unit": "nM"}, {"measurement": "Emax", "setting": "MCF-7 cells; [2]", "result": 130, "unit": "%"}]}, {"compound": "CN(C)CCCOc1ccc(C2=C(c3ccc(O)cc3)CSC2)cc1", "note": "[4d, 4-{4-[4-(3-dimethylaminopropoxy)phenyl]-2,5-dihydrothiophen-3-yl}phenol]", "values": [{"measurement": "melting point", "result": "177 to 178.5", "unit": "°C"}, {"measurement": "RBA (relative binding affinity)", "setting": "[1]", "result": 4.0, "unit": "%"}, {"measurement": "Estrogenic / antiestrogenic activity toward MCF-7 (in words)", "setting": "MCF-7 cells", "result": "acted as ER antagonists"}, {"measurement": "IC50", "setting": "MCF-7 cells; Homo sapiens", "result": 410, "unit": "nM"}]}, {"compound": "O=S1(=O)CCC(c2ccc(O)cc2)=C(c2ccc(O)cc2)CC1", "note": "[5c, 4,5-Bis (4-hydroxyphenyl)-2,3,6,7-tetrahydrothiepine-1,1-dioxide]", "values": [{"measurement": "Estrogenic / antiestrogenic activity toward MCF-7 (in words)", "setting": "MCF-7 cells", "result": "weak estrogenic activity; also recorded: showed estrogenic activity"}, {"measurement": "EC50", "setting": "MCF-7 cells; Homo sapiens, MCF7, 96 h", "result": 4700, "unit": "nM"}, {"measurement": "Emax", "setting": "MCF-7 cells; [2]", "result": 89, "unit": "%"}]}, {"compound": "CN(C)CCCOc1ccc(C2=C(c3ccc(O)cc3)CCSCC2)cc1", "note": "[5d, 4-{5-[4-(3-Dimethylaminopropoxy)phenyl]-2,3,6,7-tetrahydrothiepin-4-yl}phenol]", "values": [{"measurement": "Estrogenic / antiestrogenic activity toward MCF-7 (in words)", "setting": "MCF-7 cells", "result": "acted as ER antagonists"}, {"measurement": "IC50", "setting": "MCF-7 cells; Homo sapiens", "result": 90, "unit": "nM"}]}, {"compound": "Oc1ccc(C2=C(c3ccc(O)cc3)C3CCC2CC3)cc1", "note": "[compound 2]", "values": [{"measurement": "Estrogenic activity (in words)", "setting": "ER", "result": "potent estrogenic activity"}]}, {"compound": "CC1(C)CC(c2ccc(O)cc2)=C(c2ccc(O)cc2)CC1(C)C", "note": "[compound 3]", "values": [{"measurement": "Estrogenic activity (in words)", "setting": "ER", "result": "acted as a partial agonist"}]}]}
